The values that follow come from patent US10918731B2, “HSP90 inhibitory peptide conjugate and application thereof in treating tumor” (INSTITUTE OF BASIC MEDICAL SCIENCES, CHINESE ACADEMY OF …, priority 2015, dated 2021).

Ends that are not written are not given here. Peptide text beside a SMILES is read from it.

In one data set the test system is A549 cell xenograft. Kind of data set: Human non-small cell lung cancer A549 xenograft nude mice model, tumor growth. It is filed as in vivo, BALB/c nu/nu female nude mice. The following applies: 10 mg/kg based on DTX, intraperitoneal, once a week, four injections. As to the method: A549 cell, a non-small cell lung cancer cell line, growing in logarithmic phase were collected and gently pipetted with 1 ml F-12K media containing […] to prepare the single cell suspension, which was consequently counted with appropriate dilution. The cell suspension was mixed with Matrigel (1:3) under ice bath. The concentration of the cell suspension was adjusted to 8×10^6 cells/ml and stored at 0° C. before transplantation.
Thirty BALB/c nu/nu female nude mice (16 g) were acclimated to the environment for 1 week before the formal experiment. […]
The mice were frequently observed and tumor volume was measured with a Vernier caliper, the volume was calculated by the equation (long diameter×short diameter^2) (½), when tumor reaching a size of 100 mm^3, mice were divided into 4 groups: (1) Saline (control), (2) DTX, (3) TN-DTX and (4) DTX-P7.
Next day after animal grouping, agents were administrated via intraperitoneal injection once a week for a total of four injections. The first administrated day was recorded as Day 0 and the other administrated days were respectively recorded as Day 7, Day 14, Day 21. […]
The mice were measured and weighted every two times a week. Tumor dimensions were measured using calipers. […]

In data set [1] the test system is tumor cell. Nature of the data set: Autophagy: autophagosome and expression of autophagy related proteins (Beclin 1, LC3). It is filed as cell-based. The following applies: 6 h; for expression of autophagic Beclin1 and LC3, single agent: agent alone. Here is the method: The cells were seeded and cultured. Targeting peptide was diluted with culture medium. Appropriate concentration of DTX was also prepared for the seeded cells. Equivalent culture medium was added as negative control group; 1×10^−9 M targeting peptide solution was added as Peptide group; 10^−9 M DTX was added as DTX group; 10^−9 M targeting peptide and […] were added as combination group (DTX+P). The cells were incubated at 37° C., 5% CO2 for 6 h to analyze the autophagosome. Protein was extracted to measured expression of autophagy related proteins.

In data set [2] the test system is tumor cell. Nature of the data set: Apoptosis by Annexin V method and Western blotting of apoptosis related proteins. In kind it is cell-based. Here is the method: The cells were seeded and cultured. Targeting peptide was diluted with culture medium. Appropriate concentration of DTX was also prepared for the seeded cells. Equivalent culture medium was added as negative control group, 1×10^−9 M targeting peptide solution added as Peptide group, 10^−9 M DTX added as DTX group, 10^−9 M targeting peptide and […] added as combination group (DTX+P). The cells were incubated at 37° C., 5% CO2 for 6 h to analyze the apoptosis by Annexin V method. The protein was extracted to measure the expression of apoptosis related proteins.

For another data set, the system named is HSP90. Nature of the data set: Western blotting of HSP90 expression in A549 cells. It is filed as cell-based, human. The conditions noted are these: 48 h. Here is the method:
• (1) lung adenocarcinoma A549 cells were trypsinized and then centrifuged at 800×g for 5 min. The precipitate was re-suspended with PBS and adjusted to 1×10^6 cells/ml. • (2) the cells were seeded into 6-well plate and 2 ml culture medium was added. Then the cells were incubated at 37° C., 5% CO2 overnight. • (3) The peptide was diluted with medium and 300 μl solution was added to each well with a final concentration of 1×10^−4 M. Equal volume of medium was added to the negative well. Triple wells were set for each group and experiment was repeated three times. The plate was incubated at 37° C., 5% CO2 for 48 h. Protein was extracted and subjected to Western blotting analysis.

Data set [3] deals with breast cancer MCF-7S cells. Kind of data set: CCK-8 cytotoxicity, breast cancer MCF-7S cells. The following applies: human, 48 h. In kind it is cell-based. As to the method:
(§1) Lung adenocarcinoma A549, breast cancer MCF-7S and melanoma A375 cells were diluted respectively to 3×10^4 cells/ml and pipetted to 96-well plate with 100 μl in each well. Twenty-four hours later, 5, 20, 80 or 320 nM DTX-P7, Paclitaxel-heptapeptide conjugate (PTX-P7), Doxorubicin-NH2-heptapeptide conjugate (DOX-P7) and Doxorubicin-OH-heptapeptide conjugate (DOX-OH-P7) were added to the wells and incubated for 48 h. Then 10 μl CCK-8 was added and measured 1.5 h later at 450 nm to calculate the viability and median inhibitory concentration IC50.

Data set [4] deals with Lung adenocarcinoma A549 cells. Kind of data set: CCK-8 cytotoxicity, lung adenocarcinoma A549 cells. The conditions noted are these: human, 48 h. In kind it is cell-based. As to the method: as §1
Another data set concerns melanoma A375 cells. Nature of the data set: CCK-8 cytotoxicity, melanoma A375 cells. It is filed as cell-based. The following applies: human, 48 h. Here is the method: as §1

As for `CC(=O)O[C@@]12CO[C@@H]1C[C@H](O)[C@@]1(C)C(=O)[C@H](O)C3=C(C)[C@@H](OC(=O)[C@H](O)[C@@H](NC(=O)OC(C)(C)C)c4ccccc4)C[C@@](O)([C@@H](OC(=O)c4ccccc4)[C@H]21)C3(C)C` [DTX, Docetaxel, reference compound], the “effect on tumor growth” value in the data set with A549 cell xenograft is “obvious inhibitory effects on the tumor growth”. Also, the “expression of autophagic Beclin1 and LC3, single agent” value in the data set on tumor cell [1] is “enhanced the expression the Beclin 1 and conversion of LC3-I to LC3-II”.

On to “LPLTPLP (SEQ ID No: 1) [targeting peptide]”, for which, in the data set with tumor cell [1], the “expression of autophagic Beclin1 and LC3, single agent” value was “did not affect the expression of these proteins”. Besides, the “Beclin1 expression and conversion of LC3-I to LC3-II, DTX and targeting peptide simultaneously added” value with tumor cell [1] (combination group (DTX+P), compared with DTX treatment only) is recorded as “significantly inhibited the autophagy induced by DTX”. In addition, the “apoptosis (Annexin V), peptide alone” value with tumor cell [2] (6 h, 1×10^−9 M targeting peptide) is “induced apoptosis”. Also, the “apoptosis (Annexin V), peptide combined with DTX” value with tumor cell [2] (6 h, combination group (DTX+P)) is recorded as “further promoted apoptosis when combined with DTX”. For the same compound, in the data set with tumor cell [2] (Western blotting), the “caspase-3 cleavage, peptide alone” value is “induce caspase-3 cleavage”. For the same compound, in the data set on tumor cell [2] (Western blotting, compared with DTX alone), the “caspase-3 cleavage, peptide combined with DTX” value is on record as “the cleavage was further enhanced when combined with DTX compared with DTX alone”. In addition, the “expression of HSP90” value with HSP90 was “effectively down regulated the expression of HSP90 in a dose-dependent manner”.

In the case of `COc1ccc2c(c1)C(=O)c1c(O)c3c(c(O)c1C2=O)C[C@@](O)(C(=O)COC(=O)CCC(=O)N[C@@H](CC(C)C)C(=O)N1CCC[C@H]1C(=O)N[C@@H](CC(C)C)C(=O)N[C@H](C(=O)N1CCC[C@H]1C(=O)N[C@@H](CC(C)C)C(=O)N1CCC[C@H]1C(=O)O)[C@@H](C)O)C[C@@H]3OC1CC(N)C(O)C(C)O1` (stereo partly drawn) [DOX-OH-P7] (HELM PEPTIDE1{[COc1ccc2c(c1)C(=O)c1c(O)c3c(c(O)c1C2=O)C[C@@](O)(C(=O)COC(=O)CCC(=O)[*:2])C[C@@H]3OC1CC(N)C(O)C(C)O1].L.P.L.T.P.L.P}$$$$V2.0), the 50% inhibitory concentration (IC50) in data set [3] came out at 18.1 nM; in data set [4], 6.2 nM; in the data set on melanoma A375 cells it was 28.4 nM.
